# Results reported in patent US11433055B2, “Chromane monobactam compounds for the treatment of bacterial infections” (priority 2017, dated 2022).
# Structures can show the parent of a compound that is named as a salt. Where two headings read alike, the source gives them in different places.
# How the values were obtained:
# Type in all cases: cell-based
# Conditions in all cases: lowest concentration inhibiting 95% of bacterial growth, in the presence of β lactamase inhibitor (BLi, Relebactam), 22 hours, 35±2° C., OD600
# [1] = tested on: Pseudomonas aeruginosa expressing AmpC (CL5701)
# Description: (§1) Antibiotic Activity: Determination of Growth Inhibitory Concentration
# (§2) The concentrations of compounds required to inhibit the growth of various strains of bacteria were determined in an assay that assessed bacterial growth by measuring optical density at 600 nm (OD600). The bacterial strains tested included the clinical strains Escherichia coli expressing NDM-1 (CLB30016), Klebsiella pneumoniae expressing KPC-1 (CL6569), Acinetobacter baumannii expressing TEM-1, AmpC, and Oxa-24/40 (CL6188) and Pseudomonas aeruginosa expressing AmpC (CL5701). All compounds were tested in the presence of a β lactamase inhibitor (BLi, Relebactam) in 384-well microplates. The clinical strains were stored as frozen single use stocks, thawed and diluted into 1.1× cation-adjusted Mueller-Hinton II broth to achieve approximately 2×10^5 CFU/mL. Test compounds were dissolved in DMSO and diluted 1:50 in the assay, resulting in a final concentration range of 100 μM to 0.098 μM. On the day of the assay, 1 μL of test compound was added to the plate followed by 4 μL of 50 μg/mL BLi in MOPS buffer and 45 μL of diluted bacteria. Plates were centrifuged at 1000 rpm for 30 seconds, shaken at approximately 800 rpm for 1 minute, and incubated at 35±2° C. for 22 hours. The concentration of BLi used in the assay was […]. At the end of the incubation, absorbance at 600 nm was determined using a spectrophotometer. Inhibition was quantitated by identifying the lowest concentration of test compound that was required to inhibit 95% of the growth of the bacteria. The results for Examples 1-39 are reported in Table I, expressed as the concentration of compound that inhibited 95% of bacterial growth (Minimum Inhibitory Threshold Concentration; MITC95).
# [2] = tested on: Escherichia coli expressing NDM-1 (CLB30016)
# Description: as §1, §2
# [3] = tested on: Klebsiella pneumoniae expressing KPC-1 (CL6569)
# Description: as §1, §2
# [4] = tested on: Acinetobacter baumannii expressing TEM-1, AmpC, and Oxa-24/40 (CL6188)
# Description: as §1, §2
Molecule,PA_CL5701 MITC95 [1],EC_CLB30016 MITC95 [2],KP_CL6569 MITC95 [3],AB_CL6188 MITC95 [4],PA_CL5701 MITC95 ([1]; sulfate formate),EC_CLB30016 MITC95 ([2]; sulfate formate),KP_CL6569 MITC95 ([3]; sulfate formate),AB_CL6188 MITC95 ([4]; sulfate formate)
"C[n+]1cc(-c2ccc3c(c2)CC[C@H]([C@](C)(O/N=C(\C(=O)N[C@@H]2C(=O)N(OS(=O)(=O)[O-])C2(C)C)c2csc(N)n2)C(=O)O)O3)ccc1NCCN [Example 34, mono((S)-3-((Z)-2-(2-aminothiazol-3-ium-4-yl)-2-(((S)-1-((R)-6-(6-((2-ammonioethyl)amino)-1-methylpyridin-1-ium-3-yl)chroman-2-yl)-1-carboxy-ethoxy)imino)acetamido)-2,2-dimethyl-4-oxoazetidin-1-yl sulfate) mono(2,2,2-trifluoroacetate)]",25 µM,25 µM,0.78 µM,12.5 µM,–,–,–,–
"(S)-3-((Z)-2-(((S)-1-((R)-6-(1-(3-Aminopropyl)-2-(azetidin-3-ylmethyl)-1H-pyrazol-2-ium-4-yl)chroman-2-yl)-1-carboxyethoxy)imino)-2-(2-aminothiazol-4-yl)acetamido)-2,2-dimethyl-4-oxoazetidin-1-yl Sulfate [Example 3]",6.25 µM,3.13 µM,0.39 µM,6.25 µM,–,–,–,–
"CC1(C)[C@H](NC(=O)/C(=N\O[C@](C)(C(=O)O)[C@H]2CCc3cc(-c4cn(C[C@@H](O)CN)[n+](CC5CNC5)c4)ccc3O2)c2csc(N)n2)C(=O)N1OS(=O)(=O)[O-] [Example 4, (S)-3-((Z)-2-(((S)-1-((R)-6-(1-((S)-3-Amino-2-hydroxypropyl)-2-(azetidin-3-ylmethyl)-1H-pyrazol-2-ium-4-yl)chroman-2-yl)-1-carboxyethoxy)imino)-2-(2-aminothiazol-4-yl)acetamido)-2,2-dimethyl-4-oxoazetidin-1-yl Sulfate]",25 µM,12.5 µM,1.281 µM,6.25 µM,–,–,–,–
"C[n+]1cc(-c2ccc3c(c2)CC[C@@H](CO/N=C(\C(=O)N[C@@H]2C(=O)N(OS(=O)(=O)[O-])C2(C)C)c2csc(N)n2)O3)cn1CCCN [Example 10, (S)-3-((Z)-2-((((S)-6-(1-(3-aminopropyl)-2-methyl-1H-pyrazol-2-ium-4-yl)chroman-2-yl)methoxy)imino)-2-(2-aminothiazol-4-yl)acetamido)-2,2-dimethyl-4-oxoazetidin-1-yl sulfate]",6.25 µM,6.25 µM,0.3906 µM,12.5 µM,–,–,–,–
"C[n+]1cc(-c2ccc3c(c2)OCC(CO/N=C(\C(=O)N[C@@H]2C(=O)N(OS(=O)(=O)[O-])C2(C)C)c2csc(N)n2)C3)ccc1NCCN.O=C(O)C(F)(F)F (single isomer, unassigned) [Example 37A]",3.13 µM,12.5 µM,0.78 µM,12.5 µM,–,–,–,–
"CC1(C)[C@H](NC(=O)/C(=N/O[C@](C)(C(=O)O)[C@H]2CCc3cc(C4CN=C(NC[C@H](O)CN)NC4)ccc3O2)c2csc(N)n2)C(=O)N1OS(=O)(=O)O.O=CO (stereo partly drawn) [Example 28, 2-(((R)-3-amino-2-hydroxypropyl)amino)-5-((R)-2-((S)-1-((((E)-1-(2-aminothiazol-4-yl)-2-(((S)-2,2-dimethyl-4-oxo-1-(sulfooxy)azetidin-3-yl)amino)-2-oxoethylidene)amino)oxy)-1-carboxyethyl)chroman-6-yl)-3,4,5,6-tetrahydropyrimidin-1-ium formate]",3.13 µM,6.25 µM,0.2 µM,3.13 µM,–,–,–,–
"CC1(C)[C@H](NC(=O)/C(=N\O[C@](C)(C(=O)O)[C@H]2CCc3cc(-c4cn(C[C@@H](O)CN)[n+](C[C@H]5CCNC5)c4)ccc3O2)c2csc(N)n2)C(=O)N1OS(=O)(=O)[O-] [Example 41, mono((S)-3-((Z)-2-(((S)-1-((R)-6-(1-((S)-3-amino-2-hydroxypropyl)-2-(((S)-pyrrolidin-1-ium-3-yl)methyl)-1H-pyrazol-2-ium-4-yl)chroman-2-yl)-1-carboxyethoxy)imino)-2-(2-aminothiazol-4-yl)acetamido)-2,2-dimethyl-4-oxoazetidin-1-yl sulfate) mono (2,2,2-trifluoroacetate)]",0.78 µM,>50 µM,0.1 µM,1.56 µM,–,–,–,–
"C[n+]1cc(-c2ccc3c(c2)CC[C@H]([C@](C)(O/N=C(\C(=O)N[C@@H]2C(=O)N(OS(=O)(=O)[O-])C2(C)C)c2csc(N)n2)C(=O)O)O3)ccc1NC(CN)CN.O=CO [Example 23A, (3S)-3-((Z)-2-(((1S)-1-((2R)-6-(6-((1-amino-3-ammoniopropan-2-yl)amino)-1-methylpyridin-1-ium-3-yl)chroman-2-yl)-1-carboxyethoxy)imino)-2-(2-aminothiazol-4-yl)acetamido)-2,2-dimethyl-4-oxoazetidin-1-yl sulfate formate]",–,–,–,–,3.125 µM,12.5 µM,0.3906 µM,6.25 µM
"CC1(C)[C@H](NC(=O)/C(=N\O[C@](C)(C(=O)O)[C@H]2CCc3cc(C4=CN=C(NCCCN)NC4)ccc3O2)c2csc(N)n2)C(=O)N1OS(=O)(=O)O [Example 32, 2-((3-aminopropyl)amino)-5-((R)-2-((S)-1-((((Z)-1-(2-aminothiazol-4-yl)-2-(((S)-2,2-dimethyl-4-oxo-1-(sulfooxy)azetidin-3-yl)amino)-2-oxoethylidene)amino)oxy)-1-carboxyethyl)chroman-6-yl)-3,4-dihydropyrimidin-1-ium Formate]",3.125 µM,3.125 µM,0.1953 µM,3.125 µM,–,–,–,–
"CC1(C)[C@H](NC(=O)/C(=N\O[C@](C)(C(=O)O)[C@H]2CCc3cc(-c4ccc(NCCN)[n+](CC5CNC5)c4)ccc3O2)c2csc(N)n2)C(=O)N1OS(=O)(=O)[O-].O=CO [Example 14, (S)-3-((Z)-2-(((S)-1-((R)-6-(6-((2-aminoethyl)amino)-1-(azetidin-1-ium-3-ylmethyl)pyridin-1-ium-3-yl)chroman-2-yl)-1-carboxyethoxy)imino)-2-(2-aminothiazol-4-yl)acetamido)-2,2-dimethyl-4-oxoazetidin-1-yl Sulfate Formate]",12.5 µM,12.5 µM,0.7813 µM,50 µM,–,–,–,–
"C[n+]1cc(-c2ccc3c(c2)CC[C@H]([C@](C)(O/N=C(\C(=O)N[C@@H]2C(=O)N(OS(=O)(=O)[O-])C2(C)C)c2csc(N)n2)C(=O)O)O3)cn1C[C@@H](O)CN [Example 8, (S)-3-((Z)-2-(((S)-1-((R)-6-(1-((S)-3-amino-2-hydroxypropyl)-2-methyl-1H-pyrazol-2-ium-4-yl)chroman-2-yl)-1-carboxyethoxy)imino)-2-(2-aminothiazol-4-yl)acetamido)-2,2-dimethyl-4-oxoazetidin-1-yl sulfate]",25 µM,100 µM,3.125 µM,100 µM,–,–,–,–
CC1(C)[C@H](NC(=O)/C(=N\O[C@](C)(C(=O)O)[C@H]2CCc3cc(-c4ccc5[n+](c4)CC(CN)CN5CCN)ccc3O2)c2csc(N)n2)C(=O)N1OS(=O)(=O)[O-].O=CO (some centres unmarked) [Example 39],3.125 µM,12.5 µM,0.3255 µM,7.292 µM,–,–,–,–
"C[n+]1cc(-c2ccc3c(c2)CC[C@@H](CO/N=C(\C(=O)N[C@@H]2C(=O)N(OS(=O)(=O)[O-])C2(C)C)c2csc(N)n2)O3)ccc1NCCN [Example 36, mono((R)-3-((Z)-2-(2-aminothiazol-3-ium-4-yl)-2-((((S)-6-(6-((2-ammonioethyl)amino)-1-methyl-pyridin-1-ium-3-yl)chroman-2-yl)methoxy)imino)acetamido)-2,2-dimethyl-4-oxoazetidin-1-yl sulfate) mono(2,2,2-trifluoroacetate)]",6.25 µM,12.5 µM,0.7813 µM,3.125 µM,–,–,–,–
"CC1(C)[C@H](NC(=O)/C(=N\O[C@](C)(C(=O)O)[C@H]2CCc3cc(C4CNC(NCCN)=N4)ccc3O2)c2csc(N)n2)C(=O)N1OS(=O)(=O)O (single isomer, unassigned) [Example 25]",3.125 µM,6.25 µM,0.3906 µM,50 µM,–,–,–,–
